In publication PMC7171677 (ACS infectious diseases, 2019):
In brackets after ≈: the same amount, converted by molar mass. Entries after “also recorded” stand apart in the source; their conditions may differ. Where two headings read alike, the source gives them in different places.

Tests used:
[1] = test system: PfENT1-expressing fui1Δ yeast; experiment: 5-FUrd inhibition of PfENT1-expressing fui1Δ yeast growth; format: cell-based; conditions: Saccharomyces cerevisiae, read-out: IC50 for inhibition of yeast growth
[2] = test system: HB3 strain P. falciparum parasites; experiment: P. falciparum parasite proliferation, HB3 strain; format: cell-based; conditions: Plasmodium falciparum, HB3, read-out: HB3 parasite proliferation IC50
[3] = biological target: PvENT1 (Plasmodium vivax, UniProt A5K8B0); experiment: [3H]adenosine uptake into PvENT1-expressing yeast; format: cell-based
[4] = biological target: human serum albumin (Homo sapiens, UniProt P02768); experiment: HSA column binding; format: in vitro ADME
[5] = test system: 7G8 strain P. falciparum parasites; experiment: P. falciparum parasite proliferation, 7G8 strain; format: cell-based; conditions: Plasmodium falciparum, 7G8, read-out: 7G8 parasite proliferation IC50
[6] = biological target: PbENT1 (Plasmodium berghei, UniProt A0A509AYF4); experiment: [3H]adenosine uptake into PbENT1-expressing yeast; format: cell-based
[7] = biological target: T1, PfENT1 (Plasmodium falciparum, UniProt Q8IDM6); experiment: Yeast Kill Assay; format: cell-based
T1 sequence (Q8IDM6 1-422): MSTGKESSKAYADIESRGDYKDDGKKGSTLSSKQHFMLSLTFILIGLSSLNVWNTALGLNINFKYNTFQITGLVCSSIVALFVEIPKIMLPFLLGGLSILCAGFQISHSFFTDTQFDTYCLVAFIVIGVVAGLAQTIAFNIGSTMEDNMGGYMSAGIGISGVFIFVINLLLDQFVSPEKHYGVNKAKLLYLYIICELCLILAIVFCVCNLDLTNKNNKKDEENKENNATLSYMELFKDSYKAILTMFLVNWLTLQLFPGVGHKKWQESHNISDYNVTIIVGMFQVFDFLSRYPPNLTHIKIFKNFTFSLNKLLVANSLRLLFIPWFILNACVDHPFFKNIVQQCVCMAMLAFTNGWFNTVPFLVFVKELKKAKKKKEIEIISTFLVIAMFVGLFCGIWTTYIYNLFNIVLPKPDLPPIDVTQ

[8] = test system: Dd2 strain P. falciparum parasites; experiment: P. falciparum parasite proliferation, Dd2 strain; format: cell-based, Plasmodium falciparum
[9] = Property Forecast Index; format: physicochemical; conditions: chromatographic log D7.4 + aromatic ring count
[10] = biological target: T1, PfENT1; experiment: Yeast HTS Growth Assay
[11] = biological target: T1, PfENT1; experiment: Yeast Kill Assay; format: cell-based; remark: listed apart in the source
[12] = test system: PfENT1-KO (pfent1Δ) parasites in the Dd2 background; experiment: P. falciparum parasite proliferation, PfENT1-knockout; format: cell-based, Plasmodium falciparum; conditions: for IC50: Plasmodium falciparum, DD2, read-out: PfENT1-KO parasite proliferation IC50
[13] = Kinetic solubility; format: physicochemical; conditions: phosphate buffered saline, pH 7.4, aqueous buffer, kinetic from dmso stock
[14] = in vitro; format: cell-based; conditions: human
[15] = biological target: T2, hENT1 (Homo sapiens, UniProt Q99808); experiment: [3H]adenosine uptake into human RBC; format: cell-based; conditions: for hENT1 [3H]adenosine uptake into RBC IC50: mean ± SD, NE = no effect at 100 μM
T2 sequence (Q99808 1-456): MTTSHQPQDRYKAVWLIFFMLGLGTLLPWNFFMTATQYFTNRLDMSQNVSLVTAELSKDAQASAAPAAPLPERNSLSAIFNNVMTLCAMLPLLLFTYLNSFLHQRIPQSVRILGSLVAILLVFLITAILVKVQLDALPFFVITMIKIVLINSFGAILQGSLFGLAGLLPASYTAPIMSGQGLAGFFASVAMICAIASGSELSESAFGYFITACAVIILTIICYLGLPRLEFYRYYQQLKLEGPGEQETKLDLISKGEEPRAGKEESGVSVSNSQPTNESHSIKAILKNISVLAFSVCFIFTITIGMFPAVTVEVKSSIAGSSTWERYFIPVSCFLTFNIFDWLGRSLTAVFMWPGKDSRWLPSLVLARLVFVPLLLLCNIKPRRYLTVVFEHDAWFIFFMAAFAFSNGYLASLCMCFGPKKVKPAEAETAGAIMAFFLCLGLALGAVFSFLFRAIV

[16] = test system: 3D7 strain P. falciparum parasites; experiment: P. falciparum parasite proliferation, 3D7 strain; format: cell-based; conditions: Plasmodium falciparum, 3D7, 48 h, read-out: 3D7 parasite proliferation IC50
[17] = biological target: T1, PfENT1; experiment: [3H]adenosine uptake into PfENT1-expressing yeast; format: cell-based
[18] = biological target: T3, hFNT (Homo sapiens, UniProt Q8NBI5); experiment: [3H]hypoxanthine uptake into human RBC; format: cell-based; conditions: mean ± SD; 15 minutes; NE = no effect at 100 μM
T3 sequence (Q8NBI5 1-491): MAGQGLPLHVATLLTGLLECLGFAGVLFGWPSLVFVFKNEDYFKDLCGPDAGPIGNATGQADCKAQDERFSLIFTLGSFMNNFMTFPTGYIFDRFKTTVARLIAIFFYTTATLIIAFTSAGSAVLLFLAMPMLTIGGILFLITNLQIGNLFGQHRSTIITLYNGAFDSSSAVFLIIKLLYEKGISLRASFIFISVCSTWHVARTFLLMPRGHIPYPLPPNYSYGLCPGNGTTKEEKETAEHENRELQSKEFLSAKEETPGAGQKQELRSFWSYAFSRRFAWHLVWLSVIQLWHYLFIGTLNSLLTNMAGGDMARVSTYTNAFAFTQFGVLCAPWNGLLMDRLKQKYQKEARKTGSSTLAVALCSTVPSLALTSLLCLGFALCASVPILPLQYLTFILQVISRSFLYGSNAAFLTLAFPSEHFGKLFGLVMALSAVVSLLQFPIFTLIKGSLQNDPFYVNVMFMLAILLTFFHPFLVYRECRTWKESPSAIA

[19] = Plasmodium falciparum, DD2, read-out: Dd2 parasite proliferation IC50, mean ± SD

human serum albumin, sequence (P02768 25-609): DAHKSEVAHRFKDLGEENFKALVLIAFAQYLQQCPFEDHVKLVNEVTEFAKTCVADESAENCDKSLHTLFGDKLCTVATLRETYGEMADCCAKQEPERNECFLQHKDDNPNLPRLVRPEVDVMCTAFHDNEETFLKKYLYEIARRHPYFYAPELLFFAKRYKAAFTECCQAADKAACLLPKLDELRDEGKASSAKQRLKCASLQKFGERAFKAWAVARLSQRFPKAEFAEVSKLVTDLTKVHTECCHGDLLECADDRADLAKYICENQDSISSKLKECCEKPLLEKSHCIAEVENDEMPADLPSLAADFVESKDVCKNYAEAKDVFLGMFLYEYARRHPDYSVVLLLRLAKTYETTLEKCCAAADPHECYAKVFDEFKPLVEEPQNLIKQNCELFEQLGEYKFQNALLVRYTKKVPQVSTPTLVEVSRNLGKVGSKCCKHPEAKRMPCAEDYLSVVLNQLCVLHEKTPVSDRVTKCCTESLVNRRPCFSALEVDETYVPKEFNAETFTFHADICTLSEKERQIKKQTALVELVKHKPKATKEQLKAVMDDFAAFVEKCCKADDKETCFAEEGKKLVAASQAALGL
PvENT1, sequence (A5K8B0 whole entry): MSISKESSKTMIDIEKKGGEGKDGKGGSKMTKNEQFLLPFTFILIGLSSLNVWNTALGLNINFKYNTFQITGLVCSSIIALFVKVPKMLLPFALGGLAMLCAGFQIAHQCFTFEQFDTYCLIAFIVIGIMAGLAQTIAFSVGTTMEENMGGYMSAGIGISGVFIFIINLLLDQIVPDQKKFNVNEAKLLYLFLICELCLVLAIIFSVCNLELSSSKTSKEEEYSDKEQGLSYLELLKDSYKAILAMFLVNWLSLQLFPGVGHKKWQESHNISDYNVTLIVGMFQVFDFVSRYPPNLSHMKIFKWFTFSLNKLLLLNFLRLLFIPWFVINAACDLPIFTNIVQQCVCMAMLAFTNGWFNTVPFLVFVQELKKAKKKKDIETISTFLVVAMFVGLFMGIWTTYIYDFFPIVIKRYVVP
PbENT1, sequence (A0A509AYF4 whole entry): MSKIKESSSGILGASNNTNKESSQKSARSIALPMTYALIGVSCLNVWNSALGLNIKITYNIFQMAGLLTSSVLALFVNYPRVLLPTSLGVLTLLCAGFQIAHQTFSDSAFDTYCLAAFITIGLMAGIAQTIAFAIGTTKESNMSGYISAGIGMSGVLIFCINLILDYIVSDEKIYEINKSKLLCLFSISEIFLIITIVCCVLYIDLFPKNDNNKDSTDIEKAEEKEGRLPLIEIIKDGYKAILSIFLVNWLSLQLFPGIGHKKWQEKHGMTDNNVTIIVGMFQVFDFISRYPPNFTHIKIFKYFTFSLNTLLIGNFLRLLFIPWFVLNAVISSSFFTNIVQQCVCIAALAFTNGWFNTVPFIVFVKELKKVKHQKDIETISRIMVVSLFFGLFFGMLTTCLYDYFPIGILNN

Row | SMILES | IC50 [2] | IC50 [3] | HSA Column binding [4] | IC50 [5] | IC50 [6] | IC50 [7] | IC50 [8, 19] | PFI [9] | EC50 [10] | IC50 [11] | IC50 [12] | solubility at 1 h [13] | IC50 at 48 h [14] | IC50 [15] | IC50 [16] | IC50 [17] | hFNT [3H]hypoxanthine uptake into RBC IC50 [18] | further results
1 | O=c1[nH]c(=O)n([C@@H]2O[C@H](CO)[C@@H](O)[C@H]2O)cc1F [5-FUrd, 5-fluorouridine] | – | – | – | – | – | – | – | – | – | – | – | – | – | – | – | – | – | IC50 [1]: 4800 nM
2 | COc1ccc(-c2nc(C(=O)Nc3cccc(-c4nnc5n4CCCCC5)c3)cs2)cc1OC [GSK-1, 2-(3,4-Dimethoxyphenyl)-N-[3-(6,7,8,9-tetrahydro-5H-[1,2,4]triazolo[4,3-a]azepin-3-yl)phenyl]-1,3-thiazole-4-carboxamide] | 340 ± 100 nM | 140 ± 70 nM | 94% | 480 ± 200 nM | 130 ± 50 nM | 540 ± 200 nM | 110 ± 9 nM | 8.8 | 3160 nM | 630 nM | 17000 ± 4800 nM | 10.5 µg/mL (≈ 22.1 µM) | > 100000 nM | 990 ± 810 nM | 780 ± 200 nM | 120 ± 80 nM | – | –
3 | CCc1nnc(NC(=O)c2nc(-c3ccc(Cl)cc3)n3c2CCCCC3)s1 [GSK-2, 3-(4-Chlorophenyl)-N-(5-ethyl-1,3,4-thiadiazol-2-yl)-6,7,8,9-tetrahydro-5H-imidazo[1,5-a]azepine-1-carboxamide] | 3550 ± 700 nM | 40 ± 30 nM | 97% | 4520 ± 100 nM | 50 ± 30 nM | 110 ± 40 nM | 1890 ± 200 nM | 9.6 | 250 nM | < 80 nM | 2660 nM | 2.5 µg/mL (≈ 6.22 µM) | > 100000 nM | 24500 ± 24800 nM | 2250 ± 400 nM | 30 ± 30 nM | did not inhibit | –
4 | O=C(Nc1ccccc1C(=O)NC1CC1)c1cccc(N2CCCC2=O)c1 [GSK-3, N-Cyclopropyl-2-{[3-(2-oxo-1-pyrrolidinyl)benzoyl]amino}benzamide] | 2210 ± 600 nM | 40 ± 10 nM | 84% | 6080 ± 1300 nM | 70 ± 40 nM | 460 ± 300 nM | 590 ± 50 nM | 6 | 2510 nM | 630 nM | – | 112 µg/mL (≈ 308 µM) | > 100000 nM | 72400 ± 19300 nM | 2380 ± 500 nM | 30 ± 10 nM | – | PfENT1-KO parasite proliferation IC50 ([12]; 75 μM hypoxanthine, NE = no effect at 74.2 μM, N=1 for GSK-2 and GSK-5): Low activity/NE^e
5 | Cc1oc(-c2ccccc2)nc1C(=O)NCCN1CCCCCC1=O [GSK-4, 5-Methyl-N-[2-(2-oxo-1-azepanyl)ethyl]-2-phenyl-1,3-oxazole-4-carboxamide] | 6160 ± 2500 nM | 20 ± 40 nM | 92% | 8440 ± 2400 nM | 10 ± 10 nM | 430 ± 300 nM | 1900 ± 400 nM | 6.5 | 3980 nM | 1260 nM | 29400 ± 500 nM | 156 µg/mL (≈ 457 µM) | > 100000 nM | 51000 ± 27700 nM | 6200 ± 1900 nM | 20 ± 10 nM | did not inhibit | –
6 | CC(=O)Nc1nc(-c2c(F)cccc2F)cs1 [GSK-5, N-[4-(2,6-Difluorophenyl)-1,3-thiazol-2-yl]acetamide] | 9090 ± 4500 nM | 2710 ± 250 nM | 90% | 16100 ± 5500 nM | 3090 ± 2700 nM | 4000 ± 1300 nM | 10600 ± 2100 nM | 5.7 | 63100 nM | 6310 nM | 10800 nM | 16 µg/mL (≈ 62.9 µM) | > 100000 nM | – | 8720 ± 1600 nM | 2590 ± 2360 nM | – | hENT1 [3H]adenosine uptake into RBC IC50 [15]: did not inhibit; also recorded: Low activity/NE^d
7 | CCn1cnnc1C1CCN(C(=O)c2cn3ccc(C)cc3n2)CC1 [GSK-6, [4-(4-Ethyl-4H-1,2,4-triazol-3-yl)-1-piperidinyl](7-methylimidazo[1,2-a]pyridin-2-yl)methanone] | 19700 ± 4100 nM | – | 48% | 19000 ± 3500 nM | – | 1200 ± 1100 nM | 1890 nM | 4.2 | 10000 nM | 1260 nM | > 100000 nM | > 133 µg/mL | > 100000 nM | – | 10300 ± 4700 nM | 3980 ± 1350 nM | did not inhibit | PvENT1 [3H]Ado uptake IC50 ([3]; mean ± SD, yeast expressing P. vivax ENT1, NE = no effect at 100 μM): did not inhibit; PbENT1 [3H]Ado uptake IC50 ([6]; mean ± SD, yeast expressing P. berghei ENT1, NE = no effect at 100 μM): did not inhibit; IC50 ([8]; read-out: Dd2 parasite proliferation IC50, mean ± SD): 3300 ± 1700 nM; hENT1 [3H]adenosine uptake into RBC IC50 [15]: did not inhibit
